Laboratory results published in patent US9738634B2, “Heterocyclic amide compound and herbicide” (SYNGENTA PARTICIPATIONS AG, priority 2013, dated 2017).

What was measured:
Format in all cases: in vivo
[1] = test system: green foxtail; test: Test Example 3: weedkilling efficacy through soil treatment; E: green foxtail; details: treatment dosage 315 g/ha
Outline: (§1)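 Crop and weed responses were judged three weeks after a uniform surface spray of the water-diluted emulsion at the given g/ha rate. Seeds sat beneath about 1.5 cm of sterilized diluvial soil, and boxes stood in a greenhouse at 25 to 30° C.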

[2] = test system: Italian ryegrass; test: Test Example 3: weedkilling efficacy through soil treatment; I: Italian ryegrass; details: treatment dosage 315 g/ha
Outline: as §1

[3] = test system: soybean; test: Test Example 3: soil treatment, effect on crop; d: soybean; details: treatment dosage 315 g/ha
Outline: as §1

[4] = test system: birds-eye speedwell; test: Test Example 4: weedkilling efficacy by foliar treatment; p: birds-eye speedwell; details: treatment dosage 315 g/ha
Outline: (§2)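 Seeds are spot-sown into sterilized diluvial soil and covered with about 1.5 cm of soil. After 14 days' greenhouse growth at 25 to 30° C, plants are sprayed on stems and leaves with diluted emulsion at the stated g/ha rate, then scored at 3 weeks.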

[5] = test system: bulrush; test: Test Example 1: weedkilling efficacy, preemergent weed treatment in the submerged state; B: bulrush; details: treatment dosage 252 g/ha
Outline: (§3)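 Submerged pre-emergence treatment, water-surface application of compound emulsion at g/ha dosages; 4 cm flooded alluvial soil, weeds sown and 2.5-leaf rice transplanted same day. Rated after 3 weeks, greenhouse.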

[6] = test system: catchweed; test: Test Example 3: weedkilling efficacy through soil treatment; O: catchweed; details: treatment dosage 315 g/ha
Outline: as §1

[7] = test system: oval-leafed pondweed; test: Test Example 2: weedkilling efficacy, growth period weed treatment in the submerged state; C: oval-leafed pondweed; details: treatment dosage 252 g/ha
Outline: (§4)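 Seedlings at 1-2 leaves in 4 cm-deep submerged alluvial soil received emulsion formulations on the water surface, dosed per hectare; effects were judged 3 weeks on.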

[8] = test system: wheat; test: Test Example 3: soil treatment, effect on crop; e: wheat; details: treatment dosage 315 g/ha
Outline: as §1

[9] = test system: barnyard grass; test: Test Example 2: weedkilling efficacy, growth period weed treatment in the submerged state; A: barnyard grass; details: treatment dosage 252 g/ha
Outline: as §4

[10] = test system: corn; test: Test Example 3: soil treatment, effect on crop; c: corn; details: treatment dosage 315 g/ha
Outline: as §1

[11] = test system: wild oat; test: Test Example 3: weedkilling efficacy through soil treatment; G: wild oat; details: treatment dosage 315 g/ha
Outline: as §1

[12] = test system: beet; test: Test Example 3: soil treatment, effect on crop; f: beet; details: treatment dosage 315 g/ha
Outline: as §1

[13] = test system: chickweed; test: Test Example 4: weedkilling efficacy by foliar treatment; N: chickweed; details: treatment dosage 315 g/ha
Outline: as §2

[14] = test system: oval-leafed pondweed; test: Test Example 1: weedkilling efficacy, preemergent weed treatment in the submerged state; C: oval-leafed pondweed; details: treatment dosage 252 g/ha
Outline: as §3

[15] = test system: Indian mallow; test: Test Example 4: weedkilling efficacy by foliar treatment; K: Indian mallow; details: treatment dosage 315 g/ha
Outline: as §2

[16] = test system: Italian ryegrass; test: Test Example 4: weedkilling efficacy by foliar treatment; I: Italian ryegrass; details: treatment dosage 315 g/ha
Outline: as §2

[17] = test system: transplanted rice; test: Test Example 1: preemergent weed treatment in the submerged state, effect on crop; a: transplanted rice; details: treatment dosage 252 g/ha
Outline: as §3

[18] = test system: wild oat; test: Test Example 4: weedkilling efficacy by foliar treatment; G: wild oat; details: treatment dosage 315 g/ha
Outline: as §2

[19] = test system: bulrush; test: Test Example 2: weedkilling efficacy, growth period weed treatment in the submerged state; B: bulrush; details: treatment dosage 252 g/ha
Outline: as §4

[20] = test system: redroot pigweed; test: Test Example 3: weedkilling efficacy through soil treatment; L: redroot pigweed; details: treatment dosage 315 g/ha
Outline: as §1

[21] = test system: Indian mallow; test: Test Example 3: weedkilling efficacy through soil treatment; K: Indian mallow; details: treatment dosage 315 g/ha
Outline: as §1

[22] = test system: wheat; test: Test Example 4: foliar treatment, effect on crop; e: wheat; details: treatment dosage 315 g/ha
Outline: as §2

[23] = test system: redroot pigweed; test: Test Example 4: weedkilling efficacy by foliar treatment; L: redroot pigweed; details: treatment dosage 315 g/ha
Outline: as §2

[24] = test system: chickweed; test: Test Example 3: weedkilling efficacy through soil treatment; N: chickweed; details: treatment dosage 315 g/ha
Outline: as §1

[25] = test system: fig-leafed goosefoot; test: Test Example 3: weedkilling efficacy through soil treatment; M: fig-leafed goosefoot; details: treatment dosage 315 g/ha
Outline: as §1

[26] = test system: barnyard grass; test: Test Example 1: weedkilling efficacy, preemergent weed treatment in the submerged state; A: barnyard grass; details: treatment dosage 252 g/ha
Outline: as §3

[27] = test system: black-grass; test: Test Example 3: weedkilling efficacy through soil treatment; H: black-grass; details: treatment dosage 315 g/ha
Outline: as §1

[28] = test system: fig-leafed goosefoot; test: Test Example 4: weedkilling efficacy by foliar treatment; M: fig-leafed goosefoot; details: treatment dosage 315 g/ha
Outline: as §2

[29] = test system: crabgrass; test: Test Example 4: weedkilling efficacy by foliar treatment; D: crabgrass; details: treatment dosage 315 g/ha
Outline: as §2

[30] = test system: birds-eye speedwell; test: Test Example 3: weedkilling efficacy through soil treatment; p: birds-eye speedwell; details: treatment dosage 315 g/ha
Outline: as §1

[31] = test system: beet; test: Test Example 4: foliar treatment, effect on crop; f: beet; details: treatment dosage 315 g/ha
Outline: as §2

[32] = test system: black-grass; test: Test Example 4: weedkilling efficacy by foliar treatment; H: black-grass; details: treatment dosage 315 g/ha
Outline: as §2

[33] = test system: catchweed; test: Test Example 4: weedkilling efficacy by foliar treatment; O: catchweed; details: treatment dosage 315 g/ha
Outline: as §2

[34] = test system: crabgrass; test: Test Example 3: weedkilling efficacy through soil treatment; D: crabgrass; details: treatment dosage 315 g/ha
Outline: as §1

[35] = test system: soybean; test: Test Example 4: foliar treatment, effect on crop; d: soybean; details: treatment dosage 315 g/ha
Outline: as §2

[36] = test system: corn; test: Test Example 4: foliar treatment, effect on crop; c: corn; details: treatment dosage 315 g/ha
Outline: as §2

[37] = test system: directly sown rice; test: Test Example 4: foliar treatment, effect on crop; b: directly sown rice; details: treatment dosage 315 g/ha
Outline: as §2

[38] = test system: green foxtail; test: Test Example 4: weedkilling efficacy by foliar treatment; E: green foxtail; details: treatment dosage 315 g/ha
Outline: as §2

[39] = test system: directly sown rice; test: Test Example 3: soil treatment, effect on crop; b: directly sown rice; details: treatment dosage 315 g/ha
Outline: as §1

## CC1=C(c2ccccc2)C(=O)N(C(C)(C)C(=O)Nc2cncc(C(F)(F)F)c2)CO1 [B-3-03]
[1]
  E (green foxtail) weedkilling efficacy grade: 5 (weed kill ratio 90% or more, (practically complete withering))
[2]
  I (Italian ryegrass) weedkilling efficacy grade: 5 (weed kill ratio 90% or more, (practically complete withering))
[3]
  d (soybean) effect on crop grade: 0 (weed kill ratio 5% or less (practically no effect))
[4]
  P (birds-eye speedwell) weedkilling efficacy grade: 1 (weed kill ratio 5% or more, less than 20%)
[5]
  B (bulrush) weedkilling efficacy grade: 5 (weed kill ratio 90% or more, (practically complete withering))
[6]
  O (catchweed) weedkilling efficacy grade: 0 (weed kill ratio 5% or less (practically no effect))
[7]
  C (oval-leafed pondweed) weedkilling efficacy grade: 5 (weed kill ratio 90% or more, (practically complete withering))
[8]
  e (wheat) effect on crop grade: 0 (weed kill ratio 5% or less (practically no effect))
[9]
  A (barnyard grass) weedkilling efficacy grade: 5 (weed kill ratio 90% or more, (practically complete withering))
[10]
  c (corn) effect on crop grade: 4 (weed kill ratio 70% or more, less than 90%)
[11]
  G (wild oat) weedkilling efficacy grade: 4 (weed kill ratio 70% or more, less than 90%)
[12]
  f (beet) effect on crop grade: 2 (weed kill ratio 20% or more, less than 40%)
[13]
  N (chickweed) weedkilling efficacy grade: 2 (weed kill ratio 20% or more, less than 40%)
[14]
  C (oval-leafed pondweed) weedkilling efficacy grade: 5 (weed kill ratio 90% or more, (practically complete withering))
[15]
  K (Indian mallow) weedkilling efficacy grade: 2 (weed kill ratio 20% or more, less than 40%)
[16]
  I (Italian ryegrass) weedkilling efficacy grade: 5 (weed kill ratio 90% or more, (practically complete withering))
[17]
  a (transplanted rice) effect on crop grade: 0 (weed kill ratio 5% or less (practically no effect))
[18]
  G (wild oat) weedkilling efficacy grade: 4 (weed kill ratio 70% or more, less than 90%)
[19]
  B (bulrush) weedkilling efficacy grade: 5 (weed kill ratio 90% or more, (practically complete withering))
[20]
  L (redroot pigweed) weedkilling efficacy grade: 0 (weed kill ratio 5% or less (practically no effect))
[21]
  K (Indian mallow) weedkilling efficacy grade: 0 (weed kill ratio 5% or less (practically no effect))
[22]
  e (wheat) effect on crop grade: 0 (weed kill ratio 5% or less (practically no effect))
[23]
  L (redroot pigweed) weedkilling efficacy grade: 2 (weed kill ratio 20% or more, less than 40%)
[24]
  N (chickweed) weedkilling efficacy grade: 0 (weed kill ratio 5% or less (practically no effect))
[25]
  M (fig-leafed goosefoot) weedkilling efficacy grade: 1 (weed kill ratio 5% or more, less than 20%)
[26]
  A (barnyard grass) weedkilling efficacy grade: 5 (weed kill ratio 90% or more, (practically complete withering))
[27]
  H (black-grass) weedkilling efficacy grade: 5 (weed kill ratio 90% or more, (practically complete withering))
[28]
  M (fig-leafed goosefoot) weedkilling efficacy grade: 2 (weed kill ratio 20% or more, less than 40%)
[29]
  D (crabgrass) weedkilling efficacy grade: 5 (weed kill ratio 90% or more, (practically complete withering))
[30]
  P (birds-eye speedwell) weedkilling efficacy grade: 3 (weed kill ratio 40% or more, less than 70%)
[31]
  f (beet) effect on crop grade: 0 (weed kill ratio 5% or less (practically no effect))
[32]
  H (black-grass) weedkilling efficacy grade: 5 (weed kill ratio 90% or more, (practically complete withering))
[33]
  O (catchweed) weedkilling efficacy grade: 0 (weed kill ratio 5% or less (practically no effect))
[34]
  D (crabgrass) weedkilling efficacy grade: 5 (weed kill ratio 90% or more, (practically complete withering))
[35]
  d (soybean) effect on crop grade: 3 (weed kill ratio 40% or more, less than 70%)
[36]
  c (corn) effect on crop grade: 4 (weed kill ratio 70% or more, less than 90%)
[37]
  b (directly sown rice) effect on crop grade: 5 (weed kill ratio 90% or more, (practically complete withering))
[38]
  E (green foxtail) weedkilling efficacy grade: 5 (weed kill ratio 90% or more, (practically complete withering))
[39]
  b (directly sown rice) effect on crop grade: 4 (weed kill ratio 70% or more, less than 90%)
